These results are taken from patent US11649396B2, “Associative copolymers with hydrophobic quaternized (meth)acrylamide and (meth)acrylic acid derivatives” (BASF SE, priority 2018, dated 2023).

A short description of this series: Solubility tests of monomer 1 with auxiliary surfactants (additives) in the monomer solution. Type of series: physicochemical. The note with it: recipe 27 mol % sodium acrylate, 72.9 mol % acrylamide, 0.1 mol % 1; for Result (solubility of monomer 1 with additive): additive 2-20 eq relative to 1. The text has this: In order to solubilize monomer 1 the monomer was first dissolved in ethanol and then added to the monomer solution.
These tests were done in first instance with 0.1 mol % of 1.

For the compound `CCCCCCCCCCCCCCC(O)C[N+](C)(C)CCO.[Cl-]` (stereo not shown) [Dehyquart E-CA, (2-hydroxyethyl)(2-hydroxyhexadecyl)dimethylammonium chloride], the “Result (solubility of monomer 1 with additive)” value is “Not soluble**”.
Same read-out and setting: the same measure for `CCCCCCCCCCCCN(CCC(=O)[O-])CCC(=O)O.[Na+]` [Deriphat 160 C, Sodium-N-lauryl-R-iminodipropionate]: “Not soluble**”.
In the case of `C=C(C)C(=O)OCCC[N+](C)(C)CCCCCCCCCCCC` [Monomer 1], the “Result (solubility of monomer 1 without additive)” value (no additive) is “Not soluble**”.
Take `CCCCCCCCCCCCCC[N+](C)(C)C.[Br-]` [Monomer C14TAB, Tetradecyltrimethylammonium bromide, reference compound]: the “Result (solubility of monomer 1 with additive)” value is on record as “Not soluble**”.
